Data taken from patent publication US20200022963A1, “PHARMACEUTICAL COMPOSITION COMPRISING BETAHISTINE” (Otolanum AG, priority 2017, published 2020).
Like-named read-outs stand apart in the source and are kept apart here.

Test: Pharmacokinetic profile after single oral, intranasal and intravenous betahistine in beagle dogs, Example 5
Type: in vivo
Details: dog; for Cmax / concentration at 0 h / concentration at 5 min / concentration at 0.167 h / concentration at 0.333 h / concentration at 0.5 h / concentration at 1 h / concentration at 2 h / concentration at 3 h / concentration at 6 h / concentration at 24 h / AUC(0-t) / AUC(0-t)/D / Cmax/D / Intranasal AUC/dose / Tmax / AUC(0-inf): beagle, in vivo; for concentration at 0 h / concentration at 5 min / concentration at 0.167 h / concentration at 0.333 h / concentration at 0.5 h / concentration at 1 h / concentration at 2 h / concentration at 3 h / concentration at 6 h / concentration at 24 h: Betahistine Plasma Concentration
Experimental: In this study, the pharmacokinetic profile of betahistine was evaluated after a single dose administration of betahistine in male and female beagle dogs (age 5-7 months; weight of 5-11 kg, within a range of 3 kg for each sex) for three routes of administration: oral, intranasal, and intravenous.
On Day 1 of the study, betahistine (BH) was delivered orally at a dose of 12 mg/kg, 24 mg/kg, or 48 mg/kg. Each treatment group comprised 8 animals (4 males and 4 females). For pharmacokinetic assessment, plasma samples were collected prior to dosing, and then at 5, 10, 20 and 30 min, 1, 2, 3, 6, 24 hours after dosing.
On Day 8 of the study, the animals that received oral BH at a dose of 12 mg/kg were administered the test betahistine composition intranasally at a dose of 40 mg betahistine dihydrochloride; the animals that received oral BH at a dose of 24 mg/kg were administered the test betahistine composition intranasally at a dose of 80 mg betahistine dihydrochloride; and the animals that received oral BH at a dose of 48 mg/kg were administered the test betahistine composition intranasally at a dose of 120 mg betahistine dihydrochloride. The test betahistine composition was delivered intranasally in a single dose via an Aptar nasal spray pump device at a total dose level of 40, 80 and 120 mg of betahistine dihydrochloride. Plasma samples were collected prior to dosing, and then at 5, 10, 20 and 30 min, 1, 2, 3, 6, 24 hours after dosing.
On Day 15 of the study, the animals that received oral BH at a dose of 12 mg/kg and the test betahistine composition intranasally at a dose of 40 mg betahistine dihydrochloride were administered a bolus intravenous injection of betahistine at a dose of 0.44 mg/kg. Plasma samples were collected prior to dosing, and then at 5, 10, 20 and 30 min, 1, 2, 3, 6, 24 hours after dosing.
Betahistine 13CD3 dihydrochloride and 2-pyridylacetic acid-D4 hydrochloride were used as respective internal standards. The calibration range for betahistine was 0.05-250 ng/mL and for 2-PAA 2.00-3000 ng/mL using a plasma sample volume of 0.50 mL.
For determination of betahistine, the method involved liquid-liquid extraction, for 2-PAA, the method involved protein precipitation. Plasma samples were prepared for betahistine by extraction under basic conditions with an organic solvent, then the organic phase was dried, reconstituted and transferred for LC/MS-MS analysis. […] Sample analysis was performed using reversed phase chromatography.

[1] = female, inhaled or intranasal, 6 mg/kg
[2] = female, inhaled or intranasal, 13 mg/kg

Work on `CNCCc1ccccn1` [betahistine] yielded a Cmax (oral BH 48 mg/kg, male, Day 1, read-out: Cmax) of 102 ± 30.2 ng/mL, a concentration at 0 h (both sexes, iv, 0.44 mg/kg) of 0.0825 ng/mL and a concentration at 5 min (both sexes, iv, 0.44 mg/kg) of 50.9 ng/mL. It also gave a concentration at 0.167 h (both sexes, iv, 0.44 mg/kg) of 22 ng/mL, a concentration at 0.333 h (both sexes, iv, 0.44 mg/kg) of 7.03 ng/mL and a concentration at 0.5 h (both sexes, iv, 0.44 mg/kg) of 4.82 ng/mL. The concentration at 1 h (both sexes, iv, 0.44 mg/kg) was 0.308 ng/mL, the concentration at 2 h (both sexes, iv, 0.44 mg/kg) was 0.633 ng/mL and the concentration at 3 h (both sexes, iv, 0.44 mg/kg) was 0.0878 ng/mL. The concentration at 6 h (both sexes, iv, 0.44 mg/kg) was 0.849 ng/mL, the concentration at 24 h (both sexes, iv, 0.44 mg/kg) was 0.202 ng/mL and the concentration at 0 h (both sexes, po, 12 mg/kg) was 0 ng/mL. It also gave a concentration at 5 min (both sexes, po, 12 mg/kg) of 1.97 ng/mL, a concentration at 0.167 h (both sexes, po, 12 mg/kg) of 4.6 ng/mL and a concentration at 0.333 h (both sexes, po, 12 mg/kg) of 7.96 ng/mL. The concentration at 0.5 h (both sexes, po, 12 mg/kg) was 13.4 ng/mL, the concentration at 1 h (both sexes, po, 12 mg/kg) was 9.86 ng/mL and the concentration at 2 h (both sexes, po, 12 mg/kg) was 0.36 ng/mL. It also gave a concentration at 3 h (both sexes, po, 12 mg/kg) of 0.0181 ng/mL, a concentration at 6 h (both sexes, po, 12 mg/kg) of 0.00797 ng/mL and a concentration at 24 h (both sexes, po, 12 mg/kg) of 0.0105 ng/mL. For the same compound, the concentration at 0 h (both sexes, po, 24 mg/kg) was 0 ng/mL, the concentration at 5 min (both sexes, po, 24 mg/kg) was 5 ng/mL and the concentration at 0.167 h (both sexes, po, 24 mg/kg) was 5.15 ng/mL. For the same compound, the concentration at 0.333 h (both sexes, po, 24 mg/kg) was 15.5 ng/mL, the concentration at 0.5 h (both sexes, po, 24 mg/kg) was 14.9 ng/mL and the concentration at 1 h (both sexes, po, 24 mg/kg) was 31.9 ng/mL. The concentration at 2 h (both sexes, po, 24 mg/kg) was 2.83 ng/mL, the concentration at 3 h (both sexes, po, 24 mg/kg) was 1.16 ng/mL and the concentration at 6 h (both sexes, po, 24 mg/kg) was 0.21 ng/mL. For the same compound, the concentration at 24 h (both sexes, po, 24 mg/kg) was 0 ng/mL, the concentration at 0 h (both sexes, po, 48 mg/kg) was 0 ng/mL and the concentration at 5 min (both sexes, po, 48 mg/kg) was 12.1 ng/mL. For the same compound, the concentration at 0.167 h (both sexes, po, 48 mg/kg) was 22.5 ng/mL, the concentration at 0.333 h (both sexes, po, 48 mg/kg) was 12.9 ng/mL and the concentration at 0.5 h (both sexes, po, 48 mg/kg) was 26.5 ng/mL. For the same compound, the concentration at 1 h (both sexes, po, 48 mg/kg) was 56.5 ng/mL, the concentration at 2 h (both sexes, po, 48 mg/kg) was 21.5 ng/mL and the concentration at 3 h (both sexes, po, 48 mg/kg) was 6.57 ng/mL. It also gave a concentration at 6 h (both sexes, po, 48 mg/kg) of 0.439 ng/mL, a concentration at 24 h (both sexes, po, 48 mg/kg) of 0 ng/mL and an AUC(0-t) (both sexes, IV bolus BH 0.44 mg/kg, sex-combined, Day 15, read-out: AUC(0-t)) of 0.023 µg·h/mL. For the same compound, the “Absolute Bioavailability (% F), AUC(0-t)/D” value (oral 24 mg/kg vs IV bolus 0.44 mg/kg, sex-combined) was 3.01%, the “AUC(0-t)/D” value [1] was 30.2 ± 9.31 hr*ng/mL/(mg/kg) and the Cmax [1] was 770 ng/mL. The Cmax/D [1] was 128 ± 42.1 ng/mL/(mg/kg), the “Intranasal AUC/dose” value [1] was 30.2 (h · ng/mL)/(mg/kg) and the Tmax [1] was 4.8 min. The AUC(0-t) (female, inhaled or intranasal, 6 mg/kg, AUC(0-6)) was 0.18 ± 0.0573 µg·h/mL, the AUC(0-t) (female, inhaled or intranasal, 6 mg/kg, AUC(0-t)) was 0.181 ± 0.0558 µg·h/mL and the AUC(0-inf) [2] was 0.48 ± 0.336 µg·h/mL. The “AUC(0-t)/D” value [2] was 33.8 ± 21.8 hr*ng/mL/(mg/kg), the Cmax [2] was 1790 ng/mL and the Cmax/D [2] was 138 ± 102 ng/mL/(mg/kg). For the same compound, the “Intranasal AUC/dose” value [2] was 33.8 (h · ng/mL)/(mg/kg), the Tmax [2] was 8.4 min and the AUC(0-t) (female, inhaled or intranasal, 13 mg/kg, AUC(0-6)) was 0.432 ± 0.281 µg·h/mL. The AUC(0-t) (female, inhaled or intranasal, 13 mg/kg, AUC(0-t)) was 0.44 ± 0.283 µg·h/mL and the AUC(0-inf) (female, inhaled or intranasal, 17.7 mg/kg) was 0.302 µg·h/mL.
